Results published in patent publication US20050002904A1, “Uses of vascular endothelial growth factor and type I collagen inducible protein (VCIP)” (priority 2003, published 2005).
Where no end group is shown, it is not given here.

Legend:
[1] = test system: WT and MT HEK293 cells; assay: Cell aggregation assay, mixed dye-labelled WT and MT cells; assay type: cell-based; conditions: WT mixed with MT cells; 12 h
Procedure: FIGS. 9A-F show VCIP mediates heterophilic cell-cell interactions. Magnification, 200×. Bar, […]. *, P<0.05. The images of cell aggregates appear out of focus. FIG. 9A: Representative photomicrograph of a mixture of WT and MT cells labeled with red (Dil) and green (DiO) fluorescent dyes at 0 h. FIG. 9B: Small and large cell-aggregates were visible after 6 h; green arrowheads indicate the most productive cell aggregation (yellow). FIG. 9C: Representative large cell aggregates are shown after 12 h. FIG. 9D: Cells co-incubated with the GRGDSP peptide for 12 h. FIG. 9E: Cells co-incubated with anti-VCIP-RGD antibody (25 μg/ml) after 12 h. All experiments were performed at least three times in triplicates.
To monitor aggregation, cells were labeled with optimal non-toxic concentrations of fluorescent dyes. This assay was performed essentially according to the protocol described by Niessen and Gumbiner (2002), with minor modifications. […] The inhibitory effects of EDTA, peptides and antibodies on cell aggregation were determined at the end of 12 h. […] Experiments were performed at least three times with each time point analyzed in triplicate. Only productive cell aggregates (yellow) were counted. […] Numbers were expressed as the percentage of total aggregates counted. […]

[2] = test system: SW480 cells on monolayer HUVECs; assay: Adhesion of SW480 cells to HUVEC monolayer; assay type: cell-based, human; conditions: pre-incubation; GRGDSP 10, 20 μM; antibody 20, 40 μg/ml; 1 hr
Procedure: FIGS. 7A-O show the effects of VCIP on adhesion of cadherin-deficient SW480 cells to HUVECs monolayer. SW480-C, SW480-WT, and SW480-MT cells were non-enzymatically detached from dishes, washed, passed through a cell strainer, counted, and labeled with a fluorescent dye (red) prior to experiments. HUVECs were seeded onto 12-well dishes in complete media and allowed to form a 100% confluent monolayer on the day of assay. Monolayer HUVECs were washed once each with PBS and HCMF, and then preincubated in HCMF supplemented with Ca^2+/Mg^2+ for 10 min at 37° C. SW480 cells (0.25×10^6) were finely resuspendend in 500 μl of HCMF buffer supplemented with Ca^2+/Mg^2+, layered onto the monolayer, and allowed to attach at 37° C. for 1 hr. Unattached cells were removed by washing with PBS and adherent cells were fixed with 4% paraformaldehyde. The number of cells adhered to the monolayer were determined using a phase-contrast microscope. Experiments were performed at least three times in triplicates, with three independent clones. […] In each experiment, the relative percentage of cell adhesion was calculated and presented as mean±SD. […] Data are expressed as mean±S.D. (n≧7), *P<0.05. […]

[3] = test system: p120catenin; assay: Far-western assay with GST-PAP2b-cyto fusion protein; assay type: binding, human; conditions: 2 μg/ml fusion protein
Procedure: FIGS. 17A-H show interaction of PAP2b/VCIP with p120 catenin in endothelial cells. FIGS. 17A-B: Clarified cell lysates were prepared from endothelial cells infected with indicated PAP2b retroviral constructs A-E as shown in FIG. 14 and subjected to immunoprecipitation with: anti-HA (lanes 1, 2, 4, 5 and 6) or anti-p120 catenin (lane 3) and analyzed by immunoblotting with the indicated antibodies. FIGS. 17C-H: Far western analysis. Endothelial cells were solubilized in RIPA buffer, and immunoprecipitated using indicated antibodies (5 μg/1.5 mg protein). The membrane shown in FIG. 17C was incubated with 2 μg/ml of Gst-PAP2b-cyto fusion protein for 1 hour, washed with 1×TBS+tween (0.1%) and analyzed by immunoblotting with anti-Gst monoclonal antibodies (2 μg/ml). Individual lanes from the blot was excised and probed with: anti-VE-cadherin (FIG. 17D), anti-p120ctn (FIG. 17E), anti-β-catenin (FIG. 17F), anti-γ-catenin (FIG. 17G), and β1-integrin (FIG. 17H) monoclonal antibodies. […]
To further substantiate that the C-terminal cytoplasmic domain of PAP2b was indeed the region involved in the interaction, far-western assay (Wary et al., 1996) was performed using recombinant affinity purified GST-PAP2b-cyto fusion protein as follows. […] After rinsing with TBS, pH 7.5, the membrane was incubated with anti-Gst mouse monoclonal antibodies and detected as previously described (Schor et al., 1996). […]

Q: With GRADSP [control peptide] as the substance, how does the “inhibition of cell aggregation” value [1] read?
A: did not

Q: For “GRGDSP (CHAIN a peptide containing RGD sequence)”, which “inhibition of cell aggregation” value [1] is on record?
A: dose-dependently inhibited cell aggregation

Q: What about the “blocking of adhesion of pLNCX2-VCIP-RGD SW480 cells to monolayer HUVECs” value [2] of the same substance?
A: blocked

Q: How did the “interaction with p120catenin” value [3] turn out when “GST-PAP2b-c-cyto: recombinant affinity purified GST fusion of the C-terminal cytoplasmic domain of PAP2b (LSLPAPAIRKEILSPVDIIDRNNHHNMM; also: GST fusion)” was run?
A: sufficient to interact with p120catenin

Q: What about the “reaction with VE cadherin, β- and γ-catenin, or β1-integrin polypeptides” value [3] of the same substance?
A: did not react
